Data from patent US7094909B2, “HIV protease inhibitors, compositions containing the same, their pharmaceutical uses and materials for their synthesis” (priority 2001, dated 2006).

What was measured:
461, 84V, 90M virus = experiment: Phenotypic susceptibility assay at Virologic, Inc.; format: cell-based, HIV-1; details: Human immunodeficiency virus 1, read-out: EC50 or IC50 (mM), values with asterisk (IC50)
Method: Compounds were tested in phenotypic susceptibility assays at Virologic, Inc., (See Petropoulos C. J., Parkin N. T., Limoli K. L., Lie Y. S., Wrin T., Huang W., Tian H., Smith D., Winslow G. A., Capon D J, Whitcomb J M. 2000, “A novel phenotypic drug susceptibility assay for human immunodeficiency virus type 1,” Antimicrob Agents Chemother 44(4):920–928) or using the assay described here. MT-2 cells were infected with either HIV-1 NL4-3 or HIV-1 NL4-3([…]) and incubated in the presence of serial 0.5 log dilutions of test compounds. Three days later, culture supernatants were collected and virus production, as determined by p24 ELISA, was assayed. Percent inhibition was calculated as p24 concentration in compound-treated samples as compared to infected, compound-free controls. Inhibition of viral replication is determined by measuring reduction in HIV p24 present in the culture supernatant, using a Beckman-Coulter p24HIV-1 Ag EIA kit and following the supplied protocol. Absorbance is read on a MRX microplate reader (Dynex Technologies). The EC50 was calculated as the concentration of compound that effected a decrease in the p24 production by infected, compound-treated cells to 50% of that produced by infected, compound-free cells.

[1] = molecular target: T1, HIV-1 protease (Q7S mutant form) (Human immunodeficiency virus type 1 group M subtype B, UniProt P04585, Q495S); experiment: HIV-1 Protease RET assay; format: biochemical; details: Ave. Ki (nM), RET assay, Q7S enzyme, Morrison tight binding fit
T1 construct: made in house
In short: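 Ki values fitted with the Morrison tight-binding equation from steady-state RET cleavage (ex 340, em 490 nm) of 5 μM RE(EDANS)SQNYPIVQK(DABCYL)R. Buffer pH 4.8 acetate, 1M NaCl, 5 mM DTT, 1 mg/ml BSA, 10% DMSO; 2 nM Q7S mutant dimer, 37 °C, 12 min.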

[2] = tested on: HIV-1 (HIV-1 RF, HIV-1 NL4-3) in CEM-SS / MT-2 cells; experiment: Cytopathic effect (CPE) inhibition assay (XTT/MTT dye reduction); format: cell-based; details: Human immunodeficiency virus 1, NL43; read-out: Ave CPE EC50
In short: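 Readout is XTT reduction (A450, 4 h) after six days of culturing virus-infected (moi 0.025–0.819) or mock-infected CEM-SS/MT-2 cells, 2×10^4 per well, with half-log compound series. Antiviral EC50 and cytotoxic CC50 are relative to uninfected compound-free cells. Therapeutic index is CC50 divided by EC50.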

[3] = tested on: HIV-1 NL4-3 or HIV-1 NL4-3(I84V/L90M); experiment: Susceptibility assay, p24 ELISA in infected MT-2 cells; format: cell-based; details: Human immunodeficiency virus 1, NL43, MT2, read-out: EC50 or IC50 (mM), values without asterisk (EC50)
In short: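 MT-2 cells infected with HIV-1 NL4-3 or the I84V/L90M mutant were incubated with 0.5 log serial compound dilutions for three days. Supernatant p24 was quantified by ELISA. EC50 is the concentration reducing p24 to 50% of infected, compound-free controls.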

Cc1ccccc1CNC(=O)[C@H]1N(C(=O)[C@@H](O)[C@H](Cc2ccccc2)NC(=O)COc2c(C)cccc2C)CSC1(C)C [Example B7, (R)-3-{(2S,3S)-3-[2-(2,6-Dimethylphenoxy)-ethanoylamino]-2-hydroxy-4-phenyl-butanoyl}-5,5-dimethylthiazolidine-4-carboxylic acid 2-methyl-benzylamide]
IC50 (461, 84V, 90M virus): 333 nM | Ki [1]: < 0.1 nM | EC50 [2]: 265 nM

C=CCNC(=O)[C@H]1N(C(=O)[C@@H](O)[C@H](Cc2ccccc2)NC(=O)c2cccc3c2CCN3)CSC1(C)C [Example B21, 2,3-Dihydro-1H-indole-4-carboxylic acid [(1S,2S)-3-((R)-4-allylcarbamoyl-5,5-dimethyl-thiazolidin-3-yl)-1-benzyl-2-hydroxy-3-oxo-propyl]-amide]
IC50 (461, 84V, 90M virus): 547 nM | Ki [1]: 0.91 nM | EC50 [2]: 109 nM

Cc1c(O)cccc1C(=O)N[C@@H](Cc1ccccc1)[C@H](O)C(=O)N1CSC(C)(C)[C@H]1C(=O)NCc1cccs1 [Example A23, (R)-3-((2S,3S)-2-Hydroxy-3-{[1-(3-hydroxy-2-methyl-phenyl)-methanoyl]-amino}-4-phenyl-butanoyl)-5,5-dimethyl-thiazolidine-4-carboxylic acid (thiophen-2-ylmethyl)-amide]
IC50 (461, 84V, 90M virus): 48 nM | Ki [1]: 2.6 nM | EC50 [2]: 17 nM

Cc1c(O)cccc1C(=O)N[C@@H](Cc1ccccc1)[C@H](O)C(=O)N1CSC(C)(C)[C@H]1C(=O)NCC1CCCCC1 [Example A13, 3-[2-Hydroxy-3-(3-hydroxy-2-methyl-benzoylamino)-4-phenyl-butyryl]-5,5-dimethyl-thiiazolidine-4-carboxylic acid cyclohexylmethyl-amide]
IC50 (461, 84V, 90M virus): 921 nM | Ki [1]: 3.4 nM | EC50 [2]: 495 nM

Cc1cnccc1CNC(=O)[C@H]1N(C(=O)[C@@H](O)[C@H](Cc2ccccc2)NC(=O)c2cccc(O)c2C)CSC1(C)C [Example A10, 3-[2-Hydroxy-3-(3-hydroxy-2-methyl-benzoylamino)-4-phenyl-butyryl]-5,5-dimethyl-thiazolidine-4-carboxylic acid (3-methyl-pyridin4-ylmethyl)-amide]
IC50 (461, 84V, 90M virus): 118 nM | Ki [1]: < 0.1 nM | EC50 [2]: 104 nM

Cc1c(O)cccc1C(=O)N[C@@H](Cc1ccccc1)[C@H](O)C(=O)N1CSC(C)(C)[C@H]1C(=O)NCc1ccco1 [Example A15, (R)-3-((2S,3S)-2-Hydroxy-3-{[1-(3-hydroxy-2-methyl-phenyl)-methanoyl]-amino}-4-phenyl-butanoyl)-5,5-dimethyl-thiazolidine-4-carboxylic acid (furan-2-ylmethyl)-amide]
IC50 (461, 84V, 90M virus): 57 nM | Ki [1]: < 0.1 nM | EC50 [2]: 55 nM

Cc1ccccc1CNC(=O)[C@H]1N(C(=O)[C@@H](O)[C@H](Cc2ccccc2)NC(=O)O[C@H]2CCOC2)CSC1(C)C [Example B1, {1-Benzyl-3-[5,5-dimethyl-4-(2-methyl-benzylcarbamoyl)-thiazoldin-3-yl]-2-hydroxy-3-oxo-propyl}-carbamic acid tetrahydropfuran-3-yl-ester]
IC50 (461, 84V, 90M virus): 236 nM | Ki [1]: 0.27 nM | EC50 [2]: 49 nM

Cc1ccccc1CNC(=O)[C@H]1N(C(=O)[C@@H](O)[C@H](Cc2ccccc2)NC(=O)c2cccc3c2CCN3)CSC1(C)C [Example B6, 2,3-Dihydro-1H-indole-4-carboxylic acid {(1S,2S)-1-benzyl-3-[(R)-5,5-dimethyl-4-(2-methyl-benzylcarbamoyl)-thiazolidin-3-yl]-2-hydroxy-3-oxo-propyl}-amide]
IC50 (461, 84V, 90M virus): 405 nM | Ki [1]: 0.31 nM | EC50 [2]: 95 nM

CCCC(=O)N[C@@H](Cc1ccccc1)[C@H](O)C(=O)N1CSC(C)(C)[C@H]1C(=O)NCc1ccccc1C [Example B20, (R)-3-((2S,3S)-3-Butyrylamino-2-hydroxy-4-phenyl-butyryl)-5,5-dimethyl-thiazolidine-4-carboxylic acid 2-methyl-benzylamide]
IC50 (461, 84V, 90M virus): 2080 nM | Ki [1]: 2.1 nM | EC50 [2]: 1560 nM

Cc1c(O)cccc1C(=O)N[C@@H](Cc1ccccc1)[C@H](O)C(=O)N1CSC(C)(C)[C@H]1C(=O)NCC1=CCCC1 [Example A39, (R)-3-((2S,3S)-2-Hydroxy-3-{[1-(3-hydroxy-2-methyl-phenyl)-methanoyl]-amino}-4-phenyl-butanoyl)-5,5-dimethyl-thiazolidine-4-carboxylic acid (cyclopent-1-enylmethyl)-amide]
EC50 [3]: 213 nM | Ki [1]: < 0.1 nM | EC50 [2]: 123 nM

Cc1c(O)cccc1C(=O)N[C@@H](Cc1ccccc1)[C@H](O)C(=O)N1CSC(C)(C)[C@H]1C(=O)N[C@H]1CCCc2ncccc21 [Example A42, 3-[2-Hydroxy-3-(3-hydroxy-2-methyl-benzoylamino)-4-phenyl-butyryl]-5,5-dimethyl-thiazolidine-4-carboxylic acid (5,6,7,8-tetrahydro-quinolin-5-yl)-amide]
EC50 [3]: 98 nM | Ki [1]: < 0.1 nM | EC50 [2]: 65 nM

Cc1ccc(F)cc1CNC(=O)[C@H]1N(C(=O)[C@@H](O)[C@H](Cc2ccccc2)NC(=O)c2cccc(O)c2C)CSC12CCCC2 [Example C36, (R)-3-((2S,3S)-2-Hydroxy-3-{[1-(3-hydroxy-2-methyl-phenyl)-methanoyl]-amino}-4-phenyl-butanoyl)-1-thia-3-aza-spiro[4.4]nonane-4-carboxylic acid 5-fluoro-2-methyl-benzylamide]
EC50 [3]: 666 nM | Ki [1]: < 0.1 nM | EC50 [2]: 50 nM

Cc1c(O)cccc1C(=O)N[C@@H](Cc1ccccc1)[C@H](O)C(=O)N1CSC2(CCC2)[C@H]1C(=O)N[C@@H]1C=CCCC1 [Example C39, (R)-7-((2S,3S)-2-Hydroxy-3-{[1-(3-hydroxy-2-methyl-phenyl)-methanoyl]-amino}-4-phenyl-butanoyl)-5-thia-7-aza-spiro[3.4]octane-8-carboxylic acid (S)-cyclohex-2-enylamide]
EC50 [3]: 404 nM | Ki [1]: < 0.1 nM | EC50 [2]: 13 nM

Cc1c(O)cccc1C(=O)N[C@@H](Cc1ccccc1)[C@H](O)C(=O)N1CSC2(CCCCC2)[C@H]1C(=O)N[C@@H]1C=CCCC1 [Example B84, (R)-3-((2S,3S)-2-Hydroxy-3-{[1-(3-hydroxy-2-methyl-phenyl)-methanoyl]-amino}-4-phenyl-butanoyl)-1-thia-3-aza-spiro[4.5]decane-4-carboxylic acid (S)-cyclohex-2-enylamide]
EC50 [3]: 686 nM | Ki [1]: < 0.1 nM | EC50 [2]: 9 nM

Cc1c(O)cccc1C(=O)N[C@@H](Cc1ccccc1)[C@H](O)C(=O)N1CC(F)(F)C(C)(C)[C@H]1C(=O)NCc1cccs1 [Example C22, (S)-4,4-Difluoro-1-[(2S,3S)-2-hydroxy-3-(3-hydroxy-2-methyl-benzoylamino)-4-phenyl-butyryl]-3,3-dimethyl-pyrrolidine-2-carboxylic acid (thiophen-2-ylmethyl)-amide]
EC50 [3]: 62 nM | Ki [1]: < 0.1 nM | EC50 [2]: 15 nM

Cc1c(O)cccc1C(=O)N[C@@H](Cc1ccccc1)[C@H](O)C(=O)N1CC(F)(F)C(C)(C)[C@H]1C(=O)NCC(F)(F)F [Example C23, (S)-4,4-Difluoro-1-[(2S,3S)-2-hydroxy-3-(3-hydroxy-2-methyl-benzoylamino)-4-phenyl-butyryl]-3,3-dimethyl-pyrrolidine-2-carboxylic acid (2,2,2-trifluoro-ethyl)-amide]
EC50 [3]: 109 nM | Ki [1]: < 0.1 nM | EC50 [2]: 37 nM

Cc1c(O)cccc1C(=O)N[C@@H](Cc1ccccc1)[C@H](O)C(=O)N1CSC(C)(C)[C@H]1C(=O)N[C@H]1CCOc2c(F)cc(F)cc21 [Example A55, (R)-3-((2S,3S)-2-Hydroxy-3-{[1-(3-hydroxy-2-methyl-phenyl)-methanoyl]-amino}-4-phenyl-butanoyl)-5,5-dimethyl-thiazolidine-4-carboxylic acid ((S)-6,8-difluoro-chroman-4-yl)-amide]
EC50 [3]: 798 nM | Ki [1]: 0.21 nM | EC50 [2]: 54 nM
